Legend:
[1] = tested on: ob/ob mice; experiment: Blood glucose reducing experiment, single subcutaneous injection in ob/ob mice; format: in vivo; conditions: 100 μg/kg single s.c.; for Blood glucose at different time after administration, 0 h: 0 h (before administration); for Blood glucose at different time after administration, 0 h / Blood glucose at different time after administration, 2 h / Blood glucose at different time after administration, 4 h / Blood glucose at different time after administration, 6 h / Blood glucose at different time after administration, 10 h / Blood glucose at different time after administration, 24 h / AUC0-24 h Glu / Blood glucose at different time after administration, 34 h: X ± s, n = 7; for AUC0-24 h Glu: blood glucose curve area within 24 h; for AUC0-24 h Glu Decrease rate: versus model control group;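 for all read-outs here: random blood glucose read at each time point, decrease rate given as percentage fall versus the model control group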
Method: The mice in each group received random blood glucose value measurement before (0 h) administration and 2, 4, 6, 10 and 24 h after administration, and then the time for measuring the random blood glucose was adjusted and prolonged to 34, 48, 58 or 72 h after administration according to the blood glucose condition of the mice in each group. Meanwhile, the random weight of the mice in each group before (0 h) administration and 24 h after administration was weighed, and then the random weight of the mice corresponding to the random blood glucose measurement condition 48 or 72 h after administration was weighed. The blood glucose decrease rate, the blood glucose curve area (AUC0-24 h Glu) within 24 h after administration and the decrease rate were calculated according to the following formula.
Blood glucose decrease rate=(blood glucose in the model control group−blood glucose in the administration group)/blood glucose in the model control group×100%
BG0, BG2, BG4, BG6, BG10 and BG24 represented the blood glucose values before administration (0 h) and 2, 4, 6, 10 and 24 h after administration respectively.
AUC0-24 h Glu(mmol/Lh·r) decrease rate=(model control group AUC0-24 h Glu−administration group AUC0-24 h Glu/model control group AUC0-24 h Glu×100%
Experiments were carried out twice, at an interval of 8-10 days.

[2] = Effect on random weight of ob/ob mice after single subcutaneous injection; format: in vivo; conditions: 100 μg/kg single s.c., X ± s, n = 7
Method: The mice in each group received random blood glucose value measurement before (0 h) administration and 2, 4, 6, 10 and 24 h after administration, and then the time for measuring the random blood glucose was adjusted and prolonged to 34, 48, 58 or 72 h after administration according to the blood glucose condition of the mice in each group. Meanwhile, the random weight of the mice in each group before (0 h) administration and 24 h after administration was weighed, and then the random weight of the mice corresponding to the random blood glucose measurement condition 48 or 72 h after administration was weighed.

Row | Compound | Blood glucose at different time after administration, 0 h [1] [mmol/L] | Decrease rate of blood glucose at different time after administration, 2 h [1] [%] | Blood glucose at different time after administration, 2 h [1] [mmol/L] | Decrease rate of blood glucose at different time after administration, 4 h [1] [%] | Blood glucose at different time after administration, 4 h [1] [mmol/L] | Decrease rate of blood glucose at different time after administration, 6 h [1] [%] | Blood glucose at different time after administration, 6 h [1] [mmol/L] | Decrease rate of blood glucose at different time after administration, 10 h [1] [%] | Blood glucose at different time after administration, 10 h [1] [mmol/L] | Decrease rate of blood glucose at different time after administration, 24 h [1] [%] | Blood glucose at different time after administration, 24 h [1] [mmol/L] | AUC0-24 h Glu [1] [mmol·h/L] | AUC0-24 h Glu Decrease rate [1] [%] | Changes of random body weight at different time after administration, 0 h [2] [g] | Random body weight at different time after administration, 0 h [2] [g] | Changes of random body weight at different time after administration, 24 h [2] [g] | Random body weight at different time after administration, 24 h [2] [g] | Decrease rate of blood glucose at different time after administration, 34 h [1] [%] | Blood glucose at different time after administration, 34 h [1] [mmol/L] | Decrease rate of blood glucose at different time after administration, 48 h [1] [%] | other results
1 | CC[C@H](C)[C@H](NC(=O)[C@H](CO)NC(=O)[C@H](Cc1ccc(O)cc1)NC(=O)[C@H](CC(=O)O)NC(=O)[C@H](CO)NC(=O)[C@@H](NC(=O)[C@H](Cc1ccccc1)NC(=O)[C@@H](NC(=O)CNC(=O)[C@H](CCC(=O)O)NC(=O)[C@H](C)NC(=O)[C@@H](N)Cc1ccc(O)cc1)[C@@H](C)O)[C@@H](C)CC)C(=O)N[C@@H](C)C(=O)N[C@@H](CCSC)C(=O)N[C@@H](CC(=O)O)C(=O)N[C@@H](CCCCN)C(=O)N[C@H](C(=O)N[C@@H](Cc1c[nH]cn1)C(=O)N[C@@H](CCC(N)=O)C(=O)N[C@@H](CCC(N)=O)C(=O)N[C@@H](CC(=O)O)C(=O)N[C@@H](Cc1ccccc1)C(=O)N[C@H](C(=O)N[C@@H](CC(N)=O)C(=O)N[C@@H](Cc1c[nH]c2ccccc12)C(=O)N[C@@H](CC(C)C)C(=O)N[C@@H](CC(C)C)C(=O)N[C@@H](C)C(=O)N[C@@H](CCC(N)=O)C(=O)N[C@@H](CCCCN)C(=O)NCC(=O)N[C@@H](CCCCN)C(=O)N[C@@H](CCCCN)C(=O)N[C@@H](CC(N)=O)C(=O)N[C@@H](CC(=O)O)C(=O)N[C@@H](Cc1c[nH]c2ccccc12)C(=O)N[C@@H](CCCCN)C(=O)N[C@@H](Cc1c[nH]cn1)C(=O)N[C@@H](CC(N)=O)C(=O)N[C@H](C(=O)N[C@H](C(=O)N[C@@H](CCC(N)=O)C(=O)O)[C@@H](C)O)[C@@H](C)CC)C(C)C)[C@@H](C)CC [GIP, Glucose-dependent inotropic peptide, reference compound] | 20.36 ± 0.74 | 38.0 | 12.63 ± 1.70 | 38.8 | 12.46 ± 1.66 | 32.7 | 13.71 ± 0.86 | 30.5 | 14.16 ± 1.24 | 12.4 | 17.84 ± 0.87 | 363.99 ± 14.21 | 28.7 | 0.0 ± 0.0 | 43.5 ± 0.8 | 0.1 ± 0.1 | 43.6 ± 0.8 |  |  |  | 
2 | CC[C@H](C)[C@H](NC(=O)[C@H](Cc1ccccc1)NC(=O)[C@H](CCC(=O)O)NC(=O)[C@H](CCCCN)NC(=O)[C@H](C)NC(=O)[C@H](C)NC(=O)[C@H](CCC(N)=O)NC(=O)CNC(=O)[C@H](CCC(=O)O)NC(=O)[C@H](CC(C)C)NC(=O)[C@H](Cc1ccc(O)cc1)NC(=O)[C@H](CO)NC(=O)[C@H](CO)NC(=O)[C@@H](NC(=O)[C@H](CC(=O)O)NC(=O)[C@H](CO)NC(=O)[C@@H](NC(=O)[C@H](Cc1ccccc1)NC(=O)[C@@H](NC(=O)CNC(=O)[C@H](CCC(=O)O)NC(=O)[C@H](C)NC(=O)[C@@H](N)Cc1c[nH]cn1)[C@@H](C)O)[C@@H](C)O)C(C)C)C(=O)N[C@@H](C)C(=O)N[C@@H](Cc1c[nH]c2ccccc12)C(=O)N[C@@H](CC(C)C)C(=O)N[C@H](C(=O)N[C@@H](CCCCN)C(=O)NCC(=O)N[C@@H](CCCNC(=N)N)C(N)=O)C(C)C [GLP-1, glucagon-like peptide-1, reference compound] | 20.30 ± 1.05 | 40.6 | 12.06 ± 1.36 | 41.9 | 11.79 ± 0.84 | 35.9 | 13.02 ± 0.86 | 30.9 | 14.03 ± 2.41 | 11.1 | 18.04 ± 0.71 | 359.61 ± 18.59 | 29.6 | 0.0 ± 0.0 | 43.2 ± 0.7 | -0.1 ± 0.1 | 43.1 ± 0.7 |  |  |  | 
3 | CC[C@H](C)[C@H](NC(=O)[C@H](CC(C)C)NC(=O)[C@H](Cc1c[nH]c2ccccc12)NC(=O)[C@H](CCC(N)=O)NC(=O)[C@@H](NC(=O)[C@H](Cc1ccccc1)NC(=O)[C@H](C)NC(=O)[C@H](CCCCNC(=O)COCCOCCNC(=O)COCCOCCNC(=O)CC[C@H](NC(=O)CCCCCCCCCCCCCCCCC(=O)O)C(=O)O)NC(=O)[C@H](CCC(N)=O)NC(=O)[C@H](C)NC(=O)[C@@H](NC(=O)[C@H](CCCCN)NC(=O)[C@H](CC(=O)O)NC(=O)[C@H](CC(C)C)NC(=O)C1(NC(=O)[C@@H](NC(=O)[C@H](CO)NC(=O)[C@H](Cc2ccc(O)cc2)NC(=O)[C@H](CC(=O)O)NC(=O)[C@H](CO)NC(=O)[C@@H](NC(=O)[C@H](Cc2ccccc2)NC(=O)[C@@H](NC(=O)CNC(=O)[C@H](CCC(=O)O)NC(=O)C(C)(C)NC(=O)[C@@H](N)Cc2ccc(O)cc2)[C@@H](C)O)[C@@H](C)O)[C@@H](C)CC)CCC1)[C@@H](C)CC)C(C)C)C(=O)N[C@@H](C)C(=O)NCC(=O)NCC(=O)N1CCC[C@H]1C(=O)N[C@@H](CO)C(=O)N[C@@H](CO)C(=O)NCC(=O)N[C@@H](C)C(=O)N1CCC[C@H]1C(=O)N1CCC[C@H]1C(=O)N1CCC[C@H]1C(=O)N[C@@H](CO)C(N)=O [ID NO: 8] | 20.36 ± 0.87 | 48.1 | 10.56 ± 0.99 | 50.9 | 9.99 ± 0.86 | 51.7 | 9.83 ± 0.85 | 53.1 | 9.54 ± 1.12 | 41.3 | 11.95 ± 1.26 | 260.46 ± 21.31 | 49.0 | 0.0 ± 0.0 | 43.8 ± 0.7 | -1.1 ± 0.2 | 42.7 ± 0.7 | 29.6 | 14.33 ± 1.43 | 15.7 | Changes of random body weight at different time after administration, 48 h [2]: -0.6 ± 0.1 g; Random body weight at different time after administration, 48 h [2]: 43.2 ± 0.7 g
4 | Semaglutide [reference compound] | 20.71 ± 1.14 | 56.0 | 9.12 ± 0.84 | 56.7 | 8.96 ± 1.40 | 59.8 | 8.32 ± 0.88 | 60.0 | 8.29 ± 0.86 | 59.0 | 8.49 ± 1.12 | 215.87 ± 18.67 | 57.7 | 0.0 ± 0.0 | 43.7 ± 1.0 | -2.9 ± 0.2 | 40.7 ± 1.0 | 56.0 | 9.12 ± 0.83 | 13.9 | Changes of random body weight at different time after administration, 48 h [2]: -1.9 ± 0.2 g; Random body weight at different time after administration, 48 h [2]: 41.7 ± 1.0 g

Reference: patent US20220251163A1 (Sinopep-Allsino Biopharmaceutical Co., Ltd., priority 2019, published 2022)
